In patent US8716284B2, “Adamantyl diamide derivatives and uses of same” (H. Lundbeck A/S, priority 2008, dated 2014):

biological target: T1, rat metabotropic glutamate receptor 5 (mGluR5) (Rattus norvegicus, UniProt P31424); assay: Calcium mobilization assay (FLIPR) for negative or positive allosteric activity, HEK 293 cells; assay type: cell-based; conditions: HEK293, negative allosteric modulation, inhibition of EC80 glutamate response; read-out: FLIPR maximum inhibition
T1 construct: expressed in transfected cells; host or cells: HEK 293
Procedure: The cDNA for rat metabotropic glutamate receptor 5 (mGluR5) was a generous gift from S. Nakanishi (Kyoto University, Kyoto, Japan). The mGluR5 was stably expressed in a HEK 293 cell line and grown in Dulbecco's Modified Eagle Medium (DMEM) (Invitrogen, Carlsbad, Calif.) with supplements (10% bovine calf serum, 4 mM glutamine, 100 units/mL penicillin, 100 μg/mL streptomycin and 0.75 mM G1418) at 37° C., 5% CO2. Twenty-four hours prior to assay, cells were seeded into 384-well black wall microtiter plates coated with poly-D-lysine. Just prior to assay, media was aspirated and cells dye-loaded (25 μL/well) with 3 μM Fluo-4/0.01% pluronic acid in assay buffer (Hank's Balanced Saline Solution (HBSS)): 150 mM NaCl, 5 mM KCl, 1 mM CaCl2, 1 mM MgCl2, plus 20 mM N-2-Hydroxyethylpiperazine-N′-2-ethanesulfonic acid (HEPES), pH 7.4, 0.1% bovine serum albumin (BSA) and 2.5 mM probenicid) for 1 hour in 5% CO2 at 37° C. After excess dye was discarded, cells were washed in assay buffer and layered with a final volume equal to 30 μL/well. Basal fluorescence is monitored in a fluorometric imaging plate reader (FLIPR) (Molecular Devices, Sunnyvale, Calif.) with an excitation wavelength of 488 nm and an emission range of 500 to 560 nm. Laser excitation energy was adjusted so that basal fluorescence readings were approximately 10,000 relative fluorescent units. Cells were stimulated with an EC20 or an EC80 concentration of glutamate in the presence of a compound to be tested, both diluted in assay buffer, and relative fluorescent units were measured at defined intervals (exposure=0.6 sec) over a 3 min period at room temperature. Basal readings derived from negative controls were subtracted from all samples. Maximum change in fluorescence was calculated for each well. Concentration-response curves derived from the maximum change in fluorescence were analyzed by nonlinear regression (Hill equation). A negative modulator can be identified from these concentration-response curves if a compound produces a concentration dependent inhibition of the EC80 glutamate response. […] Examples 11-163 also were tested in the above assay.
A positive modulator can be identified from these concentration-response curves if a compound produces a concentration dependent increase in the EC20 glutamate response.

T1 sequence (P31424 21-1171 isoform P31424-2 limits assumed): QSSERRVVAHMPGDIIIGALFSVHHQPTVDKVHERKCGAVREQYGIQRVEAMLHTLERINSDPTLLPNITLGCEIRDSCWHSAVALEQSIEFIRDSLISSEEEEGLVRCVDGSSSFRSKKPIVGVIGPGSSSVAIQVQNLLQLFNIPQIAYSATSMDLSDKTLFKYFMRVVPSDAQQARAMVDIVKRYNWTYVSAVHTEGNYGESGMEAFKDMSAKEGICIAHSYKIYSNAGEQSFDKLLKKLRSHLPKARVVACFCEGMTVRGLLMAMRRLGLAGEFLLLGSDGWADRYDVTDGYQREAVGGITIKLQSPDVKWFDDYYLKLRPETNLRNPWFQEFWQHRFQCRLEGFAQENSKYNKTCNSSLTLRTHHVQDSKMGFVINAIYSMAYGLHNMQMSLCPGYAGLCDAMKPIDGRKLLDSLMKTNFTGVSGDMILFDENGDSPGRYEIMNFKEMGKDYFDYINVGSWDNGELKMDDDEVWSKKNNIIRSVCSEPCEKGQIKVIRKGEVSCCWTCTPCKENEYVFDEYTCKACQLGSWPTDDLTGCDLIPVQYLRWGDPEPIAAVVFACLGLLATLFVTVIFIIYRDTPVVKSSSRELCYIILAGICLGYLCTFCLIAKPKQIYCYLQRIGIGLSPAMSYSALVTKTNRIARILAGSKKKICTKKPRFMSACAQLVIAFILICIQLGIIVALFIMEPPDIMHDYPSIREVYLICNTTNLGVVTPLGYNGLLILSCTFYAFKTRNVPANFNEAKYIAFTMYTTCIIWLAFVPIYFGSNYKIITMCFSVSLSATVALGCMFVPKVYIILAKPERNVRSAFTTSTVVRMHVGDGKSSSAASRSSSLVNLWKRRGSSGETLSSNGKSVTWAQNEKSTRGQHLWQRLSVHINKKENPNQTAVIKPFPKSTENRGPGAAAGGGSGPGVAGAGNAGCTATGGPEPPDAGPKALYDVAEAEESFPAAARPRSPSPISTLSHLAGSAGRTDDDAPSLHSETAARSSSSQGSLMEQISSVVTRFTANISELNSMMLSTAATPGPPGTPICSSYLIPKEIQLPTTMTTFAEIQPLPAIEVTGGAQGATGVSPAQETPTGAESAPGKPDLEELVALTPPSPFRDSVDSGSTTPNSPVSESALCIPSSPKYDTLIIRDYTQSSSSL

Compound	Emax
O=C(NC12CC3CC(C1)CC(NC(=O)c1cc(F)ccn1)(C3)C2)c1ccccn1 [Example 108, 4-Fluoro-pyridine-2-carboxylic acid{3-[(pyridine-2-carbonyl)-amino]-adamantan-1-yl}-amide]	70 to 99%
Cc1cccc(C(=O)NC23CC4CC(C2)CC(NC(=O)c2cccc(N5CCOCC5)n2)(C4)C3)n1 [Example 22, 6-Morpholin-4-yl-pyridine-2-carboxylic acid-{3-[(6-methyl-pyridine-2-carbonyl)-amino]-adamantan-1-yl}-amide]	63 to 99%
O=C(NC12CC3CC(C1)CC(NC(=O)c1cn4cc(Cl)ccc4n1)(C3)C2)c1ccccn1 [Example 86, 6-Chloro-imidazo[1,2-a]pyridine-2-carboxylic acid {3-[(pyridine-2-carbonyl)-amino]-adamantan-1-yl}-amide]	63 to 99%
COc1cccc(C(=O)NC23CC4CC(CC(NC(=O)c5ccccn5)(C4)C2)C3)n1 [Example 68, 6-Methoxy-pyridine-2-carboxylic acid {3-[(pyridine-2-carbonyl)-amino]-adamantan-1-yl}-amide]	63 to 99%
Cc1cncc(C(=O)NC23CC4CC(CC(NC(=O)c5ccc(F)cc5)(C4)C2)C3)n1 [Example 177, 6-Methyl-pyrazine-2-carboxylic acid [3-(4-fluoro-benzoylamino)-adamantan-1-yl]-amide]	63 to 99%
O=C(NC12CC3CC(C1)CC(NC(=O)C1CCCC1)(C3)C2)c1ccccn1 [Example 85, Pyridine-2-carboxylic acid [3-(cyclopentanecarbonyl-amino)-adamantan-1-yl]-amide]	63 to 99%
Cc1cncc(C(=O)NC23CC4CC(CC(NC(=O)c5cc(F)cc(Cl)c5)(C4)C2)C3)n1 [Example 163, 6-Methyl-pyrazine-2-carboxylic acid [3-(3-chloro-5-fluoro-benzoylamino)-adamantan-1-yl]-amide]	70 to 99%
CN1CCN(c2cccc(C(=O)NC34CC5CC(CC(NC(=O)c6ccccn6)(C5)C3)C4)n2)CC1 [Example 198, 6-(4-Methyl-piperazin-1-yl)-pyridine-2-carboxylic acid {3-[(pyridine-2-carbonyl)-amino]-adamantan-1-yl}-amide]	63 to 99%

Other lines, results leading:

Emax	Compound
70 to 99%	Cc1cccc(C(=O)NC23CC4CC(C2)CC(NC(=O)c2cccc(C(C)O)n2)(C4)C3)n1 (centres unmarked) [Example 143, 6-Methyl-pyridine-2-carboxylic acid {3-[(6-(1-hydroxy-ethyl)-pyridine-2-carbonyl)-amino]-adamantan-1-yl}-amide]
63 to 99%	COc1cccc(C(=O)NC23CC4CC(C2)CC(NC(=O)c2cccc(C)n2)(C4)C3)c1 [Example 43, 6-Methyl-pyridine-2-carboxylic acid [3-(3-methoxy-benzoylamino)-adamantan-1-yl]-amide]
70 to 99%	Cc1cccc(C(=O)NC23CC4CC(CC(NC(=O)c5ccc(F)cn5)(C4)C2)C3)n1 [Example 137, 5-Fluoro-pyridine-2-carboxylic acid {3-[(6-methyl-pyridine-2-carbonyl)-amino]-adamantan-1-yl}-amide]
63 to 99%	COCCNc1cccc(C(=O)NC23CC4CC(CC(NC(=O)c5cccc(F)c5)(C4)C2)C3)n1 [Example 245, 6-(2-Methoxy-ethylamino)-pyridine-2-carboxylic acid [3-(3-fluoro-benzoylamino)-adamantan-1-yl]-amide]
63 to 99%	Cc1cccc(C(=O)NC23CC4CC(CC(NC(=O)c5ccn6ccnc6c5)(C4)C2)C3)n1 [Example 51, Imidazo[1,2-a]pyridine-7-carboxylic acid {3-[(6-methyl-pyridine-2-carbonyl)-amino]-adamantan-1-yl}-amide]
63 to 99%	Cc1cccc(C(=O)NC23CC4CC(CC(NC(=O)c5ccncn5)(C4)C2)C3)n1 [Example 35, Pyrimidine-4-carboxylic acid {3-[(6-methyl-pyridine-2-carbonyl)-amino]-adamantan-1-yl}-amide]
